For 47 compounds, IC50 results are on record in patent US8759366B2, “Aminopyrimidines as SYK inhibitors” (Merck Sharp & Dohme Corp., priority 2009, dated 2014).

This assay concerns the target rhSYK (Homo sapiens (Human), UniProt P43405). As to conditions: read-out: rhSYK activity.

Consider `Cc1cc(Nc2nccc(C(F)(F)F)n2)cc(-c2cnc([C@]3(O)CC[C@@H](c4noc(=O)[nH]4)CC3)s2)c1` [Example 39, 3-{cis-4-Hydroxy-4-[5-(3-methyl-5-{[4-(trifluoromethyl)pyrimidin-2-yl]amino}phenyl)-1,3-thiazol-2-yl]cyclohexyl}-1,2,4-oxadiazol-5(4H)-one], for which the IC50 was less than 0.1 µM. Regarding `CC(O)(CO)c1ncc(-c2cccc(Nc3nccc(C(F)(F)F)n3)c2)s1` (centres unmarked) [Ex 5-1], the IC50 is less than 0.1 µM. In the case of `Cc1cc(Nc2nccc(C(F)(F)F)n2)cc(-c2cnc(C3CCC3)s2)c1` [13-1], the IC50 fell in the range of 0.1 to 1 µM. In the case of `Cc1cc(Nc2nccc(C(F)(F)F)n2)cc(-c2cnc(C3(O)C4CC5CC(C4)C(C(=O)O)C3C5)s2)c1` (centres unmarked) [Example 4B-43] it was less than 0.1 µM; in that of `Cc1cc(Nc2nccc(C(F)(F)F)n2)cc(-c2cnc(C(O)C(F)(F)F)s2)c1` (single isomer, unassigned) [Example 6-4], less than 0.1 µM; in that of `Cc1cc(Nc2nccc(C)n2)cc(-c2cnc([C@]3(O)[C@@H]4CC5C[C@@H]3C[C@](C(=O)O)(C5)C4)s2)c1` [Example 4B-31], less than 0.1 µM. With `O=C1C[C@@H]2C[C@@](O)(c3ncc(-c4cccc(Nc5nccc(C(F)(F)F)n5)c4)s3)C[C@@H]2C1` [Example 4B-7], the IC50 was in the range of 0.1 to 1 µM.

Regarding `CC(C)N1CCC(O)(c2ncc(-c3cccc(Nc4nccc(C(F)(F)F)n4)c3)s2)CC1` [4D-5], the IC50 lay in the range of 0.1 to 1 µM. In the case of `OC(c1ncc(-c2cccc(Nc3nccc(C(F)(F)F)n3)c2)s1)(C1CC1)C(F)(F)F` (centres unmarked) [Example 12, 1-Cyclopropyl-2,2,2-trifluoro-1-[5-(3-{[4-(trifluoromethyl)pyrimidin-2-yl]amino}phenyl)-1,3-thiazol-2-yl]ethanol], the IC50 was less than 0.1 µM. In the case of `Cc1cc(Nc2nccc(C(F)(F)F)n2)cc(-c2cnc(C(C)C)s2)c1` [Example 13, N-{3-methyl-5-[2-(1-methylethyl)-1,3-thiazol-5-yl]phenyl}-4-(trifluoromethyl)pyrimidin-2-amine] it was less than 0.1 µM. With `OC1(c2ncc(-c3cccc(Nc4nccc(C(F)(F)F)n4)c3)s2)CCCCCC1` [Example 4C-1] the figure was less than 0.1 µM; with `Cc1cc(Nc2nccc(C)n2)cc(-c2cnc(C3(O)CC4(C(=O)O)CCC3(C)C4(C)C)s2)c1` (centres unmarked) [Example 4B-32], less than 0.1 µM. With `Cc1cc(Nc2nccc(C(F)(F)F)n2)cc(-c2cnc(CS(N)(=O)=O)s2)c1` [Example 75, 1-[5-(3-methyl-5-{[4-(trifluoromethyl)pyrimidin-2-yl]amino}phenyl)-1,3-thiazol-2-yl]methanesulfonamide] the figure was less than 0.1 µM; with `Cc1cc(Nc2nccc(C)n2)cc(-c2cnc(C3(O)CCC(CN)CC3)s2)c1` (centres unmarked) [Example 4C-2], less than 0.1 µM. Consider `Cc1cc(Nc2nccc(C(F)(F)F)n2)cc(-c2cnc(C3(O)CCN(S(=O)(=O)NC(=O)OC(C)(C)C)CC3)s2)c1` [Example 48, tert-butyl({4-hydroxy-4-[5-(3-methyl-5-{[4-(trifluoromethyl)pyrimidin-2-yl]amino}phenyl)-1,3-thiazol-2-yl]piperidin-1-yl}sulfonyl)carbamate], for which the IC50 was less than 0.1 µM. With `CC(C)(O)c1ncc(-c2cc(Nc3nccc(C(F)(F)F)n3)cc(C3CC3)c2)s1` [Example 31, 2-[5-(3-cyclopropyl-5-{[4-(trifluoromethyl)pyrimidin-2-yl]amino}phenyl)-1,3-thiazol-2-yl]propan-2-ol], the IC50 was less than 0.1 µM. `Cc1cc(Nc2nccc(C)n2)cc(-c2cnc(C3(O)CCC(C)(CC(=O)O)CC3)s2)c1` (single isomer, unassigned) [Example 4C-12]: the IC50 is less than 0.1 µM. With `CC(=O)N1CCC(O)(c2ncc(-c3cccc(Nc4nccc(C(F)(F)F)n4)c3)s2)CC1` [4D-1] the figure was less than 0.1 µM.

`CC(C)(C)OC(=O)N1CCC(C(C)(O)c2ncc(-c3cccc(Nc4nccc(C(F)(F)F)n4)c3)s2)CC1` (centres unmarked) [Example 15(1), tert-butyl 4-{1-hydroxy-1-[5-(3-{[4-(trifluoromethyl)pyrimidin-2-yl]amino}phenyl)-1,3-thiazol-2-yl]ethyl}piperidine-1-carboxylate]: the IC50 was 0.1 to 1 µM. With `Cc1cc(Nc2nccc(C(F)(F)F)n2)cc(-c2cnc(C3(O)CCN(C(=O)OC(C)(C)C)C(C(F)(F)F)C3)s2)c1` (centres unmarked) [4D-15], the IC50 was in the range of 0.1 to 1 µM. As for `CC(=O)Nc1cc(Nc2nccc(C(F)(F)F)n2)cc(-c2cnc(C3(O)CCC3)s2)c1` [Example 16, N-(3-[2-(1-hydroxycyclobutyl)-1,3-thiazol-5-yl]-5-{[4-(trifluoromethyl)pyrimidin-2-yl]amino}phenyl)acetamide], the IC50 is less than 0.1 µM.

For `Fc1ccc(Nc2nccc(C(F)(F)F)n2)cc1Br` [N-(3-bromo-4-fluorophenyl)-4-(trifluoromethyl)pyrimidin-2-amine], the IC50 fell in the range of 1 to 10 µM. Consider `Cc1cc(Nc2nccc(C(F)(F)F)n2)cc(-c2cnc(C3(O)CCN(C(N)=O)CC3)s2)c1` [Example 47, 4-hydroxy-4-[5-(3-methyl-5-{[4-(trifluoromethyl)pyrimidin-2-yl]amino}phenyl)-1,3-thiazol-2-yl]piperidine-1-carboxamide], for which the IC50 was less than 0.1 µM. With `Cc1cc(Nc2ncc(Cl)cn2)cc(-c2cnc(C(O)(CO)CO)s2)c1` [Ex 5-20] the figure was 0.1 to 1 µM.

As to `O=[N+]([O-])c1cc(Nc2nccc(C(F)(F)F)n2)cc(-c2cnc(C3(O)CCC3)s2)c1` [Example 18, 1-[5-(3-nitro-5-{[4-(trifluoromethyl)pyrimidin-2-yl]amino}phenyl)-1,3-thiazol-2-yl]cyclobutanol], the IC50 is 0.1 to 1 µM. Take `Cc1cc(Nc2nccc(C(F)(F)F)n2)cc(-c2cnc(C3(O)CCOCC3)s2)c1` [Example 4B-13]: the IC50 was less than 0.1 µM. With `Cc1cc(Nc2nccc(C)n2)cc(-c2cnc(C3(O)C4CC5CC3CC(O)(C5)C4)s2)c1` (centres unmarked) [Example 4B-29] the figure was less than 0.1 µM. Regarding `Cc1cc(Nc2nccc(C(F)(F)F)n2)cc(-c2cnc(C3(O)CC4(C(=O)O)CCC3(C)C4(C)C)s2)c1` (centres unmarked) [Example 4B-49], the IC50 was less than 0.1 µM. With `Cc1cc(Nc2nccc(C(F)(F)F)n2)cc(-c2cnc(C3(O)CC4(O)CCC3(C)CC4)s2)c1` (centres unmarked) [Example 4B-41] the figure was less than 0.1 µM; with `CC(O)(CO)c1ncc(-c2cccc(Nc3nccc(C(F)(F)F)n3)c2)s1` (single isomer, unassigned) [Ex 5-3], less than 0.1 µM; with `CC(=O)Nc1cc(Nc2nccc(C(F)(F)F)n2)cc(-c2cnc(C(C)(C)S(N)(=O)=O)s2)c1` [Example 72, N-(3-[2-(2-sulfamoylpropan-2-yl)-1,3-thiazol-5-yl]-5-{[4-(trifluoromethyl)pyrimidin-2-yl]amino}phenyl)acetamide], less than 0.1 µM. In the case of `Cc1cc(Nc2nccc(C(F)(F)F)n2)cc(-c2cnc(C3(O)CCN(C(=O)CCCC(=O)O)CC3)s2)c1` [4D-13] it was less than 0.1 µM; in that of `CC(C)(c1ncc(-c2cc(Nc3nccc(C(F)(F)F)n3)cc([N+](=O)[O-])c2)s1)S(N)(=O)=O` [Example 70, 2-[5-(3-nitro-5-{[4-(trifluoromethyl)pyrimidin-2-yl]amino}phenyl)-1,3-thiazol-2-yl]propane-2-sulfonamide], 0.1 to 1 µM. In the case of `C#Cc1cc(Nc2nccc(C(F)(F)F)n2)cc(-c2cnc(C(C)(C)O)s2)c1` [Example 29, 2-[5-(3-ethynyl-5-{[4-(trifluoromethyl)pyrimidin-2-yl]amino}phenyl)-1,3-thiazol-2-yl]propan-2-ol] it was less than 0.1 µM; in that of `Cc1cc(Nc2nccc(C(F)(F)F)n2)cc(-c2cnc(C3(O)CCN(C4CC4)CC3)s2)c1` [4D-8], less than 0.1 µM; in that of `Cc1cc(Nc2nccc(C(F)(F)F)n2)cc(-c2cnc(C3(NS(C)(=O)=O)COC3)s2)c1` [Example 60, N-{3-[5-(3-methyl-5-{[4-(trifluoromethyl)pyrimidin-2-yl]amino}phenyl)-1,3-thiazol-2-yl]-oxetan-3-yl}methanesulfonamide], less than 0.1 µM. On to `Nc1cc(Nc2nccc(C(F)(F)F)n2)cc(-c2cnc(C3(O)CCC3)s2)c1` [Example 17, 1-[5-(3-amino-5-{[4-(trifluoromethyl)pyrimidin-2-yl]amino}phenyl)-1,3-thiazol-2-yl]cyclobutanol], for which the IC50 is less than 0.1 µM. In the case of `Cc1cc(Nc2nccc(C(F)(F)F)n2)cc(-c2cnc(C3(O)C4CC5CC3CC(O)(C5)C4)s2)c1` (centres unmarked) [Example 4B-42] it was less than 0.1 µM; in that of `COc1ccnc(Nc2cc(C)cc(-c3cnc(C4(O)CCC5(CC4)OCCO5)s3)c2)n1` [Example 4B-16], less than 0.1 µM; in that of `Cc1cc(Nc2nccc(C(F)(F)F)n2)cc(-c2cnc(C3(O)CCNCC3)s2)c1` [Example 46, 4-[5-(3-methyl-5-{[4-(trifluoromethyl)pyrimidin-2-yl]amino}phenyl)-1,3-thiazol-2-yl]piperidin-4-ol], less than 0.1 µM. On to `COC(=O)C1CC(O)(c2ncc(-c3cc(C)cc(Nc4nccc(C(F)(F)F)n4)c3)s2)CCN1C(=O)OC(C)(C)C` (centres unmarked) [4D-14], for which the IC50 is 0.1 to 1 µM. On to `Cc1cc(Nc2nccc(C(F)(F)F)n2)cc(-c2cnc(C3(O)CCCC(C)(CC(=O)O)C3)s2)c1` (centres unmarked) [Example 4C-23], for which the IC50 is less than 0.1 µM. In the case of `Cc1cc(Nc2nccc(C(F)(F)F)n2)cc(-c2cnc(C3(O)CCC4(CCC(=O)N4)CC3)s2)c1` (centres unmarked) [Example 4B-24] it was less than 0.1 µM; in that of `Cc1cc(Nc2nccc(C(F)(F)F)n2)cc(-c2cnc(C(NC(=O)NC(N)=O)(C3CC3)C3CC3)s2)c1` [Example 65, N-{dicyclopropyl[5-(3-methyl-5-{[4-(trifluoromethyl)pyrimidin-2-yl]amino}phenyl)-1,3-thiazol-2-yl]methyl}dicarbonimidic diamide], less than 0.1 µM; in that of `CC(=O)NC12CC3CC(C1)C(O)(c1ncc(-c4cc(C)cc(Nc5nccc(C(F)(F)F)n5)c4)s1)C(C3)C2` (centres unmarked) [Example 4B-51], less than 0.1 µM. Consider `CCOC(=O)C1CCC(O)(c2ncc(-c3cc(C)cc(Nc4nccc(C(F)(F)F)n4)c3)s2)C(C)C1C` (centres unmarked) [Example 4B-57], for which the IC50 is less than 0.1 µM.

On to `Cc1cc(Nc2nccc(C)n2)cc(-c2cnc(C3(O)CCC(CN)CC3)s2)c1` (centres unmarked) [Example 4C-3], for which the IC50 was less than 0.1 µM.
